Experimental data published in US9850225B2, “Compounds useful as immunomodulators” (BRISTOL-MYERS SQUIBB COMPANY, priority 2014, dated 2017).
pIC50: −log10 of the molar value. Like-named read-outs stand apart in the source and are kept apart here. Each block holds one compound with its values, some of them ahead of it.

Target: PD-1/PD-L1 interaction (PD-1-Ig / PD-L1-His) (Homo sapiens (Human), UniProt Q9NZQ7)
Test: PD-1/PD-L1 Homogenous Time-Resolved Fluorescence (HTRF) binding assay
Settings: PD-1/PD-L1 HTRF binding assay, read-out: Range or IC50
How it was run: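 HTRF detection used 1 nM europium-cryptate anti-Ig and 20 nM APC anti-His. Compounds first saw 10 nM PD-L1-His for 15 min, and 20 nM PD-1-Ig was then added for another 15 min. Buffer was dPBS plus 0.1% BSA and 0.05% Tween-20. All concentrations are final.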

Chain of PD-1/PD-L1 interaction (PD-1-Ig / PD-L1-His) (Q9NZQ7 other isoform, or with tags, fused parts or gaps): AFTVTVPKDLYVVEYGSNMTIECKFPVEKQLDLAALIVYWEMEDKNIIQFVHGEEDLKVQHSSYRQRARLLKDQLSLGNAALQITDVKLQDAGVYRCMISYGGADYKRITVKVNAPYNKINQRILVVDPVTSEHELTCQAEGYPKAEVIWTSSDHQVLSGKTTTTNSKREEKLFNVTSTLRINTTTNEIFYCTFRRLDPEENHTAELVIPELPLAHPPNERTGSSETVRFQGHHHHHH

Compound: COc1cc(COc2cc(OCc3cccc(-c4ccc5c(c4)OCCO5)c3C)c(Cl)cc2CN[C@@](C)(CO)C(=O)O)cc(Cl)n1 [Example 3014, (S)-2-((5-chloro-2-((2-chloro-6-methoxypyridin-4-yl)methoxy)-4-((3-(2,3-dihydrobenzo[b][1,4]dioxin-6-yl)-2-methylbenzyl)oxy)benzyl)amino)-3-hydroxy-2-methylpropanoic acid]
pIC50 (value given as range class): 8.00 to 9.22

Compound: Cc1c(COc2cc(OCc3cncc(C#N)c3)c(CN[C@@H](CC(N)=O)C(=O)O)cc2Cl)cccc1-c1ccc2c(c1)OCCO2 [Example 3022, (S)-4-amino-2-((5-chloro-2-((5-cyanopyridin-3-yl)methoxy)-4-((3-(2,3-dihydrobenzo[b][1,4]dioxin-6-yl)-2-methylbenzyl)oxy)benzyl)amino)-4-oxobutanoic acid]
pIC50 (value given as range class): 8.00 to 9.22

Compound: Cc1c(COc2cc(OCc3cncc(C#N)c3)c(CN[C@H](CC(=O)O)C(=O)O)cc2Cl)cccc1-c1ccc2c(c1)OCCO2 [Example 3025, (R)-2-((5-chloro-2-((5-cyanopyridin-3-yl)methoxy)-4-((3-(2,3-dihydrobenzo[b][1,4]dioxin-6-yl)-2-methylbenzyl)oxy)benzyl)amino)succinic acid]
pIC50 (value given as range class): 8.00 to 9.22

Compound: COC(=O)CCCCOc1cc(OCc2cccc(-c3ccccc3)c2C)ccc1CNCCNC(C)=O [Example 1032, methyl 5-(2-(((2-acetamidoethyl)amino)methyl)-5-((2-methyl-[1,1′-biphenyl]-3-yl)methoxy)phenoxy)pentanoate]
pIC50 (value given as range class): 4.70 to 7.00

Compound: Cc1c(COc2ccc(CN[C@H](CO)C(=O)O)c(OCc3cccc(C#N)c3)c2)cccc1-c1ccccc1 [Example 1016, (R)-2-((2-((3-cyanobenzyl)oxy)-4-((2-methyl-[1,1′-biphenyl]-3-yl)methoxy)benzyl)amino)-3-hydroxypropanoic acid]
pIC50 (numeric value): 8.34

Compound: Cc1c(COc2ccc(CN[C@H](CO)C(=O)O)c(OCc3cccc(C(N)=O)c3)c2)cccc1-c1ccc2c(c1)OCCO2 [Example 1325, (R)-2-((2-((3-carbamoylbenzyl)oxy)-4-((3-(2,3-dihydrobenzo[b][1,4]dioxin-6-yl)-2-methylbenzyl)oxy)benzyl)amino)-3-hydroxypropanoic acid]
pIC50 (value given as range class): 7.00 to 8.00

Compound: CC(=O)NCCNCc1ccc(OCc2cccc(-c3ccccc3)c2C)cc1OCc1ccc(C(C)=O)cc1 [Example 1040, N-(2-((2-((4-acetylbenzyl)oxy)-4-((2-methyl-[1,1′-biphenyl]-3-yl)methoxy)benzyl)amino)ethyl)acetamide]
pIC50 (value given as range class): 4.70 to 7.00

Compound: Cc1c(COc2ccc(CNC[C@@H](O)CC(=O)O)c(OCc3cccc(C#N)c3)c2Cl)cccc1-c1ccccc1 [Example 1232, (S)-4-((3-chloro-2-((3-cyanobenzyl)oxy)-4-((2-methyl-[1,1′-biphenyl]-3-yl)methoxy)benzyl)amino)-3-hydroxybutanoic acid]
pIC50 (value given as range class): 4.70 to 7.00

Compound: COC(=O)c1ccc(COc2cc(OCc3cccc(-c4ccccc4)c3C)ccc2CNCCNC(C)=O)cc1 [Example 1067, methyl 4-((2-(((2-acetamidoethyl)amino)methyl)-5-((2-methyl-[1,1′-biphenyl]-3-yl)methoxy)phenoxy)methyl)benzoate]
pIC50 (value given as range class): 4.70 to 7.00

Compound: Cc1cc(CN[C@@](C)(CO)C(=O)O)c(OCCCCC#N)cc1OCc1cccc(-c2ccc3c(c2)OCCO3)c1C [Example 1297, (S)-2-(2-(4-cyanobutoxy)-4-(3-(2,3-dihydrobenzo[b][1,4]dioxin-6-yl)-2-methylbenzyloxy)-5-methylbenzylamino)-3-hydroxy-2-methylpropanoic acid]
pIC50 (value given as range class): 8.00 to 9.22

Compound: COC(=O)c1cccc(COc2cc(OCc3cccc(-c4ccccc4)c3C)ccc2CNCCNC(C)=O)c1 [Example 1034, methyl 3-((2-(((2-acetamidoethyl)amino)methyl)-5-((2-methyl-[1,1′-biphenyl]-3-yl)methoxy)phenoxy)methyl)benzoate]
pIC50 (value given as range class): 4.70 to 7.00

Compound: CC(=O)NCCNCc1ccc(OCc2cccc(-c3ccccc3)c2C)cc1OCc1ccccc1S(C)(=O)=O [Example 1041, N-(2-((4-((2-methyl-[1,1′-biphenyl]-3-yl)methoxy)-2-((2-(methylsulfonyl)benzyl)oxy)benzyl)amino)ethyl)acetamide]
pIC50 (value given as range class): 4.70 to 7.00

Compound: CC(=O)NCCNCc1ccc(OCc2cccc(-c3ccccc3)c2C)cc1OCc1cc(C)cc(C)c1 [Example 1065, N-(2-((2-((3,5-dimethylbenzyl)oxy)-4-((2-methyl-[1,1′-biphenyl]-3-yl)methoxy)benzyl)amino)ethyl)acetamide]
pIC50 (value given as range class): 4.70 to 7.00

Compound: Cc1cc(CNC[C@@H](O)CC(=O)O)c(OCCCCC#N)cc1OCc1cccc(-c2ccc3c(c2)OCCO3)c1C [Example 1295, (S)-4-(2-(4-cyanobutoxy)-4-(3-(2,3-dihydrobenzo[b][1,4]dioxin-6-yl)-2-methylbenzyloxy)-5-methylbenzylamino)-3-hydroxybutanoic acid]
pIC50 (value given as range class): 8.00 to 9.22

Compound: CC(=O)NCCNCc1ccc(OCc2cccc(-c3ccccc3)c2C)cc1OCc1ccc(Cl)cc1 [Example 1068, N-(2-((2-((4-chlorobenzyl)oxy)-4-((2-methyl-[1,1′-biphenyl]-3-yl)methoxy)benzyl)amino)ethyl)acetamide]
pIC50 (value given as range class): 4.70 to 7.00

Compound: Cc1c(COc2cc(OCc3cncc(C#N)c3)c(CN[C@H](CC(N)=O)C(=O)O)cc2Cl)cccc1-c1ccc2c(c1)OCCO2 [Example 3024, (R)-4-amino-2-((5-chloro-2-((5-cyanopyridin-3-yl)methoxy)-4-((3-(2,3-dihydrobenzo[b][1,4]dioxin-6-yl)-2-methylbenzyl)oxy)benzyl)amino)-4-oxobutanoic acid]
pIC50 (numeric value): 8.26

Compound: Cc1cc(CN[C@](C)(CO)C(=O)O)c(OCc2cncc(C#N)c2)cc1OCc1cccc(-c2ccc3c(c2)OCCO3)c1Cl [Example 1156, (R)-2-(4-(2-chloro-3-(2,3-dihydrobenzo[b][1,4]dioxin-6-yl)benzyloxy)-2-((5-cyanopyridin-3-yl)methoxy)-5-methylbenzylamino)-3-hydroxy-2-methylpropanoic acid]
pIC50 (value given as range class): 8.00 to 9.22

Now from value to compound:

pIC50 (value given as range class): 8.00 to 9.22
Compound: Cc1c(COc2cc(OCc3cccc(C#N)c3)c(CN[C@@H](C(=O)O)[C@H](C)O)cc2Cl)cccc1-c1ccc2c(c1)OCCO2 [Example 1195, (2R,3S)-2-((5-chloro-2-((3-cyanobenzyl)oxy)-4-((3-(2,3-dihydrobenzo[b][1,4]dioxin-6-yl)-2-methylbenzyl)oxy)benzyl)amino)-3-hydroxybutanoic acid]

pIC50 (value given as range class): 7.00 to 8.00
Compound: COC(C)(C)C(NCc1cc(Cl)c(OCc2cccc(-c3ccc4c(c3)OCCO4)c2C)cc1OCc1cccc(C#N)c1)C(=O)O (stereo not drawn) [Example 1179, 2-((5-chloro-2-((3-cyanobenzyl)oxy)-4-((3-(2,3-dihydrobenzo[b][1,4]dioxin-6-yl)-2-methylbenzyl)oxy)benzyl)amino)-3-methoxy-3-methylbutanoic acid]

pIC50 (value given as range class): 4.70 to 7.00
Compound: CC(=O)NCCNCc1ccc(OCc2cccc(-c3ccc4c(c3)OCCO4)c2C)c(Cl)c1OCc1cccc(C#N)c1 [Example 1237, N-(2-((3-chloro-2-((3-cyanobenzyl)oxy)-4-((3-(2,3-dihydrobenzo[b][1,4]dioxin-6-yl)-2-methylbenzyl)oxy)benzyl)amino)ethyl)acetamide]

pIC50 (value given as range class): 8.00 to 9.22
Compound: Cc1c(COc2cc(OCc3cccc(C#N)c3)c(CN3CC[C@H](O)[C@H]3C(=O)O)cc2Cl)cccc1-c1ccc2c(c1)OCCO2 [Example 1219, (2S,3S)-1-(5-chloro-2-((3-cyanobenzyl)oxy)-4-((3-(2,3-dihydrobenzo[b][1,4]dioxin-6-yl)-2-methylbenzyl)oxy)benzyl)-3-hydroxypyrrolidine-2-carboxylic acid]

pIC50 (value given as range class): 7.00 to 8.00
Compound: Cc1c(COc2cc(OCc3cccc(C#N)c3)c(CN[C@@H](CC#N)C(=O)O)cc2Cl)cccc1-c1ccc2c(c1)OCCO2 [Example 1180, (S)-2-((5-chloro-2-((3-cyanobenzyl)oxy)-4-((3-(2,3-dihydrobenzo[b][1,4]dioxin-6-yl)-2-methylbenzyl)oxy)benzyl)amino)-3-cyanopropanoic acid]

pIC50 (value given as range class): 8.00 to 9.22
Compound: N#Cc1cccc(COc2cc(OCc3cccc(-c4ccc5c(c4)OCCO5)c3C#N)c(Br)cc2CN2CCCC[C@H]2C(=O)O)c1 [Example 1313, (S)-1-(5-bromo-4-((2-cyano-3-(2,3-dihydrobenzo[b][1,4]dioxin-6-yl)benzyl)oxy)-2-((3-cyanobenzyl)oxy)benzyl)piperidine-2-carboxylic acid]

pIC50 (value given as range class): 8.00 to 9.22
Compound: Cc1c(COc2ccc(CN[C@@H](CO)CC(=O)O)c(OCc3cccc(C#N)c3)c2)cccc1-c1ccc2c(c1)OCCO2 [Example 1129, (R)-3-((2-((3-cyanobenzyl)oxy)-4-((3-(2,3-dihydrobenzo[b][1,4]dioxin-6-yl)-2-methylbenzyl)oxy)benzyl)amino)-4-hydroxybutanoic acid]

pIC50 (value given as range class): 8.00 to 9.22
Compound: CC(=O)NCCNCc1cc(Br)c(OCc2cccc(-c3ccc4c(c3)OCCO4)c2C#N)cc1OCc1cccc(C#N)c1 [Example 1315, N-(2-((5-bromo-4-((2-cyano-3-(2,3-dihydrobenzo[b][1,4]dioxin-6-yl)benzyl)oxy)-2-((3-cyanobenzyl)oxy)benzyl)amino)ethyl)acetamide]

pIC50 (value given as range class): 8.00 to 9.22
Compound: Cc1c(COc2cc(OCc3cccc(C#N)c3)c(CNCc3nnn[nH]3)cc2Cl)cccc1-c1ccc2c(c1)OCCO2 [Example 1229, 3-((2-((((1H-tetrazol-5-yl)methyl)amino)methyl)-4-chloro-5-((3-(2,3-dihydrobenzo[b][1,4]dioxin-6-yl)-2-methylbenzyl)oxy)phenoxy)methyl)benzonitrile]

pIC50 (value given as range class): 4.70 to 7.00
Compound: Cc1c(COc2cc(OCc3cccc(C#N)c3)c(CNC(C(=O)O)C(F)(F)F)cc2Cl)cccc1-c1ccc2c(c1)OCCO2 (stereo not drawn) [Example 1162, 2-((5-chloro-2-((3-cyanobenzyl)oxy)-4-((3-(2,3-dihydrobenzo[b][1,4]dioxin-6-yl)-2-methylbenzyl)oxy)benzyl)amino)-3,3,3-trifluoropropanoic acid]
